In patent US20100160332A1, “a2-Adrenoceptor Ligands” (The Provost, Fellows and Scholars of the College of the …, priority 2008, published 2010):
Where two headings read alike, the source gives them in different places.

Legend:
α2-ARs [1] = conditions: J. Med. Chem. 2007 and 2008 studies; cited from earlier work
α2-ARs [2] = biological target: T1, α2-ARs (Homo sapiens, UniProt P08913); assay: [35S]GTPγS binding assay (agonist stimulation) in human brain cortical membranes; assay type: biochemical; conditions: for stimulation of [35S]GTPγS binding (agonist dose-response plot): compound alone
Text: The α2-ARs are G-protein coupled receptors (GPCRs), and as such, when the endogenous ligand binds to the receptor, a change in the conformation of the G-proteins occurs leading to the exchange of GDP by GTP on the α-subunit, promoting their dissociation into α-GTP and βγ subunits, and resulting in transmembrane signalling. A direct evaluation of this G-protein activity can be made by determining the guanine nucleotide exchange using radiolabelled GTP analogues. The [^35S]GTPγS binding assay constitutes a functional measure of the interaction of the receptor and the G-protein and is a useful tool to distinguish between agonists (increasing the nucleotide binding), inverse agonists (decreasing the nucleotide binding), and neutral antagonists (not affecting the nucleotide binding) of GPCRs.
(§1) Preparation of membranes. Neural membranes (P2 fractions) were prepared from the PFC of human brains obtained at autopsy in the Instituto Vasco de Medicine Legal, Bilbao, Spain. Postmortem human brain samples of each subject (˜1 g) were homogenized using a Teflon-glass grinder (10 up-and-down strokes at 1500 rpm) in 30 volumes of homogenization buffer (1 mM MgCl2, and 5 mM Tris-HCl, pH 7.4) supplemented with 0.25 M sucrose. The crude homogenate was centrifuged for 5 min at 1000×g (4° C.) and the supernatant was centrifuged again for 10 min at 40000×g (4° C.). The resultant pellet was washed twice in 20 volumes of homogenization buffer and recentrifuged in similar conditions. Aliquots of 1 mg protein were stored at −70° C. until assay.
[^35S]GTPγS binding assays. The incubation buffer for measuring [^35S]GTPγS binding to brain membranes contained, in a total volume of 500 μL, 1 mM EGTA, 3 mM MgCl2, 100 mM NaCl, […], 50 mM Tris-HCl at pH 7.4 and 0.5 nM [^35S]GTPγS. Proteins aliquots were thawed and re-suspended in the same buffer. The incubation was started by addition of the membrane suspension (40 μg of membrane proteins) to the previous mixture and was performed at 30° C. for 120 min with shaking. In order to evaluate the influence of the compounds on [^35S]GTPγS binding, 8 concentrations (10^−10 to 10^−3M) of the different compounds were added to the assay. Incubations were terminated by adding 3 mL of ice-cold re-suspension buffer followed by rapid filtration through Whatman GF/C filters pre-soaked in the same buffer. The filters were rinsed twice with 3 mL of ice-cold re-suspension buffer, transferred to vials containing 5 mL. of OptiPhase HiSafe II cocktail (Wallac, UK) and the radioactivity trapped was determined by liquid scintillation spectrometry (Packard 2200CA). […] Non-specific binding of the radioligand was defined as the remaining [^35S]GTPγS binding in the presence of 10 μM unlabelled GTPγS.

Tail suspension test = assay type: in vivo, rat
Text: FIG. 4 illustrates the rat tail suspension test for a number of compounds. The tail suspension test has become one of the most widely used models for assessing antidepressant-like activity in mice. The test is based on the fact that animals subjected to the short-term, inescapable stress of being suspended by their tail, will develop an immobile posture. Antidepressant medications reverse the immobility and promote the occurrence of escape-related behaviour.

α2-ARs [3] = biological target: T1, α2-ARs; assay: UK14304 stimulation of [35S]GTPγS binding in absence or presence of compounds (antagonism test); assay type: biochemical; conditions: human brain PFC, in vitro, 10^−5 M
Description: as §1
[^35S]GTPγS binding assays. The incubation buffer for measuring [^35S]GTPγS binding to brain membranes contained, in a total volume of 500 μL, 1 mM EGTA, 3 mM MgCl2, 100 mM NaCl, […], 50 mM Tris-HCl at pH 7.4 and 0.5 nM [^35S]GTPγS. Proteins aliquots were thawed and re-suspended in the same buffer. […] The filters were rinsed twice with 3 mL of ice-cold re-suspension buffer, transferred to vials containing 5 mL. of OptiPhase HiSafe II cocktail (Wallac, UK) and the radioactivity trapped was determined by liquid scintillation spectrometry (Packard 2200CA). […]

[4] = tested on: extracellular NA levels in the PFC; assay: In-vivo microdialysis, extracellular NA in the PFC of freely moving rats; set-up: species or system rat; conditions: for Emax, extracellular NA levels: local administration by reverse dialysis 1-100 μM in PFC
Text: The antagonistic properties of derivative 8b in-vitro, were substantiated by testing its effect on noradrenergic transmission in vivo using microdialysis experiments. This technique is a widely accepted method for sampling the extracellular fluid of the brain, allowing the study of different neurotransmitters in the extracellular area where the probe is implanted. This technique has been used to investigate the effect of different compounds on NA concentrations in the PFC, an area widely implicated in depression. The increase of NA concentration in the PFC of freely moving rats after drug administration is accepted as a good predictor for antidepressant activity. In this context, many antidepressants, including the α2-AR antagonist Mirtazapine, are able to increase dialysate levels of NA in the PFC.
Compounds 8b and RX821002 were dissolved in aCSF and perfussed via reverse dialysis at the time indicated by the arrows (every 70 minutes). Data correspond to the mean±standard error mean values from 3 to 5 animals for each group, and are expressed as percentages of the corresponding basal values.
Control rats were administered with the vehicle (saline). Intraperitoneal administration of compound 8b (10 mg/kg) increased NA extracellular concentration by 161±30% in the PFC. Data are given as mean±standard error mean values from 4-5 separate animals for each group and are expressed as percentages of the corresponding basal values. The arrow represents the time of administration of the compound or vehicle.
Microdialysis experiments Male Sprague-Dawley rats (250-300 g) were implanted with a probe in a stereotaxic apparatus under chloral hydrate anaesthesia (400 mg/kg i.p.). The probe was located in the prefrontal cortex (PFC) according to the co-ordinates of the atlas of Paxinos and Watson (AP (anterior to bregma) +2.8 mm, L (lateral from the mid-sagittal suture) +1 mm, DV (ventral from the dura surface) −5 mm). Experiments were performed 20-24 h after the probe implantation and aCSF (148 mM NaCl, 2.7 mM KCl, 1.2 mM CaCl2 and 0.85 mM MgCl2; pH 7.4) was pumped at a flow rate of 1 μl/min (CMA/Microdialysis infusion pump). […] Samples were collected every 35 min and NA concentrations analyzed by HPLC apparatus with amperometric detection (Hewlett-Packard model 1049A) at an oxidizing potential of +650 mV. […] Samples (injection volume 30 μl) were injected and NA analyzed in a run time of 10 min. […] All measures of extracellular NA concentrations are expressed as percentage of the baseline value±s.e.mean. One-way analysis of variance (ANOVA) for control group or two-way ANOVA between control and each treated group was assessed for statistical analysis. […]

T1 sequence (P08913 whole entry): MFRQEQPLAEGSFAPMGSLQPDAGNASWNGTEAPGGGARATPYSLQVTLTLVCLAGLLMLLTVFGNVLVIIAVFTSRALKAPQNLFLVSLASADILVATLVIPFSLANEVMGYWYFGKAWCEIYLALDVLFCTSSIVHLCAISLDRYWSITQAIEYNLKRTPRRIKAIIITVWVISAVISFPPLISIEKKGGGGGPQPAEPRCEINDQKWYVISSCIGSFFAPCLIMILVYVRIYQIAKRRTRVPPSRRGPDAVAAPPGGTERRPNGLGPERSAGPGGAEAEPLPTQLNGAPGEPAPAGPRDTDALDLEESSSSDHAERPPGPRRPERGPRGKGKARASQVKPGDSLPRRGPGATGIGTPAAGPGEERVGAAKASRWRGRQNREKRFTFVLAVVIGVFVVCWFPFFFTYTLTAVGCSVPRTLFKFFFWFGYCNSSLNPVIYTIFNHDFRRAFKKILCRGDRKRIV

| stimulation of [35S]GTPγS binding (agonist dose-response plot) (α2-ARs [2]) | Emax (α2-ARs [2]; read-out: Emax (%)) [%] | Compound | Emax (α2-ARs [2]) [%] | other results |
| --- | --- | --- | --- | --- |
| – | – | c1cc2c(cc1NC1=NCCN1)OCO2 [5′] | – | behaviour at α2-ARs (α2-ARs [1]): antagonist behaviour |
| – | – | N=C(N)Nc1ccc2c(c1)CCCC2 [6′] | – | behaviour at α2-ARs (α2-ARs [1]): antagonist behaviour |
| stimulated binding of [^35S]GTPγS | 87 | CNc1ccc(NC(=N)N)cc1 [Compound 7b, N-(4-methylamino-phenyl)-guanidine] | – | – |
| did not stimulate binding of [^35S]GTPγS | – | CCNc1ccc(NC(=N)N)cc1 [Compound 8b, N-(4-ethylamino-phenyl)-guanidine] | – | performance against fluoxetine (Tail suspension test; 8b 10 mg/kg vs fluoxetine 40 mg/kg): vastly outperforms; time in immobile posture (Tail suspension test; FIG. 4, against all other compounds tested): shortest length of time; nature at α2-ARs from shift of UK14304 EC50 (α2-ARs [3]): behaves as an antagonist; ability to cross the blood brain barrier (BBB) ([4]; inferred from NA increase after intraperitoneal administration): ability of the compound to cross the blood brain barrier; increase of NA extracellular concentration ([4]; intraperitoneal 10 mg/kg, PFC, percentages of basal values): 161±30%; Emax, extracellular NA levels ([4]; percentages of basal values): 304±54% |
| stimulated binding of [^35S]GTPγS | 92 | CCN(C)c1ccc(NC(=N)N)cc1 [Compound 9b, N-[4-(ethyl-methyl-amino)-phenyl]-guanidine] | – | – |
| stimulated binding of [^35S]GTPγS | 89 | CCN(CC)c1ccc(NC(=N)N)cc1 [Compound 17, reference compound] | – | – |
| – | – | COC1(C2=NCCN2)COc2ccccc2O1 (stereo not shown) [RX821002, 2-methoxy-idazoxan, reference compound] | – | Emax, extracellular NA levels ([4]; percentages of basal values): 290±35% |

| Compound | stimulation of [35S]GTPγS binding (agonist dose-response plot) (α2-ARs [2]) | Emax (α2-ARs [2]; read-out: Emax (%)) [%] | Emax (α2-ARs [2]) [%] | other results |
| --- | --- | --- | --- | --- |
| CNc1ccc(NC2=NCCN2)cc1 [Compound 4b, N-imidazolidin-2-ylidene-N′-methyl-benzene-1,4-diamine] | stimulated binding of [^35S]GTPγS | – | 98 | – |
| CCNc1ccc(NC2=NCCN2)cc1 [Compound 5b, N-ethyl-N′-imidazolidin-2-ylidene-benzene-1,4-diamine] | stimulated binding of [^35S]GTPγS | – | 95 | – |
| CCN(C)c1ccc(NC2=NCCN2)cc1 [Compound 6b, N-Ethyl-N′-imidazolidin-2-ylidene-N-methyl-benzene-1,4-diamine] | stimulated binding of [^35S]GTPγS | – | 103 | – |
